Tests used:
ECHCG = test: Postemergence foliar-applied weed control, direct seeded rice (greenhouse); type: in vivo, Echinochloa crusgalli (L.) Beauv.
Excerpt: Seeds or nutlets of the desired test plant species were planted in a soil matrix prepared by mixing a loam or sandy loam soil (e.g., 28.6 percent silt, 18.8 percent clay, and 52.6 percent sand, with a pH of about 5.8 and an organic matter content of about 1.8 percent) and calcareous grit in an 80 to 20 ratio. The soil matrix was contained in plastic pots with a volume of 1 quart and a surface area of 83.6 square centimeters (cm^2). When required to ensure good germination and healthy plants, a fungicide treatment and/or other chemical or physical treatment was applied. The plants were grown for 8-22 days in a greenhouse with an approximate 14 hr photoperiod which was maintained at about 29° C. during the day and 26° C. during the night. Nutrients (Peters Excel® 15-5-15 5-Ca 2-Mg and iron chelate) were applied in the irrigation solution as needed and water was added on a regular basis. Supplemental lighting was provided with overhead metal halide 1000-Watt lamps as necessary. The plants were employed for testing when they reached the first through fourth true leaf stage. […]
(§1) Treatment requirements were calculated based upon the rates being tested, the concentration of active ingredient or acid equivalent in the formulation, and a 12 mL application volume at a rate of 187 L/ha.
For treatments comprised of formulated compounds, measured amounts of compounds were placed individually in 25 mL glass vials and diluted in a volume of 1.25% (v/v) Agri-Dex® crop oil concentrated to obtain 12× stock solutions. […]
(§2) For treatments comprised of formulated and technical compounds, weighed amounts of the technical materials were placed individually in 25 mL glass vials and dissolved in a volume of 97:3 v/v acetone/DMSO to obtain 12× stock solutions, and measured amounts of the formulated compounds were placed individually in 25 mL glass vials and diluted in a volume of 1.5% (v/v) crop oil concentrate or water to obtain 12× stock solutions. […]

LEFCH [1] = test: as above; type: in vivo, Leptochloa chinensis (L.) Nees
Excerpt: (§3) Seeds or nutlets of the desired test plant species were planted in a soil matrix prepared by mixing a loam or sandy loam soil (e.g., 28.6 percent silt, 18.8 percent clay, and 52.6 percent sand, with a pH of about 5.8 and an organic matter content of about 1.8 percent) and calcareous grit in an 80 to 20 ratio. The soil matrix was contained in plastic pots with a volume of 1 quart and a surface area of 83.6 square centimeters (cm^2). When required to ensure good germination and healthy plants, a fungicide treatment and/or other chemical or physical treatment was applied. The plants were grown for 8-22 days in a greenhouse with an approximate 14 hr photoperiod which was maintained at about 29° C. during the day and 26° C. during the night. Nutrients (Peters Excel® 15-5-15 5-Ca 2-Mg and iron chelate) were applied in the irrigation solution as needed and water was added on a regular basis. Supplemental lighting was provided with overhead metal halide 1000-Watt lamps as necessary. The plants were employed for testing when they reached the first through fourth true leaf stage.
(§4) Treatments consisted of the acid or esters of 4-amino-3-chloro-5-fluoro-6-(4-chloro-2-fluoro-3-methoxy-phenyl)pyridine-2-carboxylic acid (Compound A), each formulated as an SC (suspension concentrate), and various herbicidal components alone and in combination. Forms of compound A were applied on an acid equivalent basis.
(§5) Other herbicidal components were applied on an active ingredient basis and included the dimethoxy-pyrimidine acid acetolactate synthase (ALS)-inhibiting herbicides bispyribac-sodium formulated as Regiment® 80WP, pyribenzoxim (technical grade material), pyriminobac-methyl formulated as Hie-Clean® 1.2% GR dissolved in water, and pyriftalid (technical grade material).
as §1
(§6) For treatments comprised of formulated compounds, measured amounts of compounds were placed individually in 25 mL glass vials and diluted in a volume of 1.25% (v/v) Agri-Dex® crop oil concentrated to obtain 12× stock solutions. […] Application solutions were prepared by adding an appropriate amount of each stock solution (e.g., 1 mL) and diluted to the appropriate final concentrations with the addition of 10 mL of an aqueous mixture of 1.25% (v/v) crop oil concentrate so that the final spray solutions contained 1.25+/−0.005% (v/v) crop oil concentrate.
(§7) For treatments comprised of technical compounds, weighed amounts can be placed individually in 25 mL glass vials and dissolved in a volume of 97:3 v/v acetone/DMSO to obtain 12× stock solutions. […] Application solutions can be prepared by adding an appropriate amount of each stock solution (e.g., 1 mL) and diluted to the appropriate final concentrations with the addition of 10 mL of an aqueous mixture of 1.5% (v/v) crop oil concentrate so that the final spray solutions contain 1.25% (v/v) crop oil concentrate. When technical materials are used, the concentrated stock solutions can be added to the spray solutions so that the final acetone and DMSO concentrations of the application solutions are 16.2% and 0.5%, respectively.
as §2

IPOHE = test: as above; type: in vivo, Ipomoea hederacea Jacq.
Excerpt: as §3, §4, §5, §1, §6, §7, §2

SCPMA = test: In-water applied weed control, transplanted paddy rice (greenhouse); type: in vivo, Bolboschoenus maritimus (L.) Palla
Method: (§8) Weed seeds or nutlets of the desired test plant species were planted in puddled soil (mud) prepared by mixing a shredded, non-sterilized mineral soil (50.5 percent silt, 25.5 percent clay, and 24 percent sand, with a pH of about 7.6 and an organic matter content of about 2.9 percent) and water at a 1:1 volumetric ratio. The prepared mud was dispensed in 365 mL aliquots into 16-ounce (oz.) non-perforated plastic pots with a surface area of 86.59 square centimeters (cm^2) leaving a headspace of 3 centimeters (cm) in each pot. Mud was allowed to dry overnight prior to planting or transplanting. Rice seeds were planted in Sun Gro MetroMix® 306 planting mixture, which typically has a pH of 6.0 to 6.8 and an organic matter content of about 30 percent, in plastic plug trays. Seedlings at the second or third leaf stage of growth were transplanted into 860 mL of mud contained in 32-oz. non-perforated plastic pots with a surface area of 86.59 cm^2 4 days prior to herbicide application. The paddy was created by filling the headspace of the pots with 2.5 to 3 cm of water. When required to ensure good germination and healthy plants, a fungicide treatment and/or other chemical or physical treatment was applied. The plants were grown for 4-22 days in a greenhouse with an approximate 14 hr photoperiod which was maintained at about 29′C during the day and 26° C. during the night. Nutrients were added as Osmocote® (19:6:12, N:P:K+minor nutrients) at 2 g per 16-oz. pot and 4 g per 32-oz. pot. Water was added on a regular basis to maintain the paddy flood, and supplemental lighting was provided with overhead metal halide 1000-Watt lamps as necessary. The plants were employed for testing when they reached the first through fourth true leaf stage.
(§9) Treatments consisted of the acid or esters of 4-amino-3-chloro-5-fluoro-6-(4-chloro-2-fluoro-3-methoxy-phenyl)pyridine-2-carboxylic acid (compound A) each formulated as an SC and various herbicidal components alone and in combination. Forms of compound A were applied on an acid equivalent basis.
(§10) Other herbicidal components were applied on an active ingredient basis and included the dimethoxy-pyrimidine acid acetolactate synthase (ALS)-inhibiting herbicides bispyribac-sodium formulated as Regiment® 80 WP, pyriminobac-methyl formulated as Hie Clean®, and pyriftalid (technical grade material).
(§11) Treatment requirements for each compound or herbicidal component were calculated based upon the rates being tested, the concentration of active ingredient or acid equivalent in the formulation, an application volume of 2 mL per component per pot, and an application area of 86.59 cm^2 per pot.
(§12) For formulated compounds, a measured amount was placed in an individual 100 or 200 mL glass vial and was dissolved in a volume of 1.25% (v/v) Agri-Dex® crop oil concentrate to obtain application solutions.
(§13) For technical grade compounds, a weighed amount was placed in an individual 100 to 200 mL glass vial and was dissolved in a volume of acetone to obtain concentrated stock solutions. […] The concentrated stock solutions obtained were diluted with an equivalent volume of an aqueous mixture containing 2.5% (v/v) crop oil concentrate so that the final application solutions contained 1.25% (v/v) crop oil concentrate.
(§14) Applications were made by injecting with a pipetter appropriate amounts of the application solutions, individually and sequentially, into the aqueous layer of the paddy.
(§15) Control plants were treated in the same manner with the solvent blank. Applications were made so that all treated plant material received the same concentrations of acetone and crop oil concentrate.
(§16) The treated plants and control plants were placed in a greenhouse as described above and water was added as needed to maintain a paddy flood. […]

CYPRO = test: as above; type: in vivo, Cyperus rotundus L.
Method: as §8, §9, §10, §11, §12, §13, §14, §15, §16

FIMMI = test: as above; type: in vivo, Fimbristylis miliacea (L.) Vahl
Method: as §8, §9, §10, §11, §12, §13, §14, §15, §16

DIGSA = test: Postemergence foliar-applied weed control, direct seeded rice (greenhouse); type: in vivo, Digitaria sanguinalis (L.) Scop.
Excerpt: as §3, §4, §5, §1, §6
as §7, with “When technical materials are used, the concentrated stock solutions can be added to the spray solutions so that the final acetone and DMSO concentrations of the application solutions are 16.2% and 0.5%, respectively.” left out
as §2

LEFCH [2] = test: In-water applied weed control, transplanted paddy rice (greenhouse); type: in vivo, Leptochloa chinensis (L.) Nees; details: 45 gai/ha
Method: as §8, §9, §10, §11, §12, §13, §14
Control plants were treated in the same manner with the solvent blank. […]

ECHCO = test: as above; type: in vivo, Echinochloa colona (L.) Link; details: 22.5 gai/ha
Method: as §8, with “Water was added on a regular basis to maintain the paddy flood, and supplemental lighting was provided with overhead metal halide 1000-Watt lamps as necessary. The plants were employed for testing when they reached the first through fourth true leaf stage.” left out
as §11
For formulated compounds, a measured amount was placed in an individual 100 or 200 mL glass vial and was dissolved in a volume of 1.25% (v/v) Agri-Dex® crop oil concentrate to obtain application solutions. […]

SMILES: COc1cc(OC)nc(Oc2cccc(Oc3nc(OC)cc(OC)n3)c2C(=O)ON=C(c2ccccc2)c2ccccc2)n1 [Pyribenzoxim, diphenylmethanone O-[2,6-bis[(4,6-dimethoxy-2-pyrimidinyl)oxy]benzoyl]oxime, reference compound]
- Visual Weed Control (%) - 20 DAA ECHCG Obs (ECHCG; 70 gai/ha): 85%

SMILES: COc1c(Cl)ccc(-c2nc(C(=O)OCc3ccccc3)c(Cl)c(N)c2F)c1F [Compound A Benzyl Ester]
- Visual Weed Control (%)-24 DAA LEFCH Obs (LEFCH [1]; 4.38 gae/ha): 0%
- Visual Weed Control (%)-20 DAA LEFCH Obs (LEFCH [1]; 8.75 gae/ha): 10%
- Visual Weed Control (%)-24 DAA LEFCH Obs (LEFCH [1]; 8.75 gae/ha): 0%
- Visual Weed Control (%)-20 DAA LEFCH Obs (LEFCH [1]; 17.5 gae/ha): 20%
- Visual Weed Control (%)-22 DAA LEFCH Obs (LEFCH [1]; 17.5 gae/ha): 25%
- Visual Weed Control (%)-24 DAA LEFCH Obs (LEFCH [1]; 17.5 gae/ha): 10%
- Visual Weed Control (%) - 20 DAA ECHCG Obs (ECHCG; 8 gae/ha): 75%
- Visual Weed Control (%) - 20 DAA ECHCG Obs (ECHCG; 16 gae/ha): 85%
- Visual Weed Control (%)-24 DAA IPOHE Obs (IPOHE; 4.38 gae/ha): 10%
- Visual Weed Control (%)-24 DAA IPOHE Obs (IPOHE; 8.75 gae/ha): 15%
- Visual Weed Control (%)-21 DAA IPOHE Obs (IPOHE; 17.5 gae/ha): 43%
- Visual Weed Control (%)-24 DAA IPOHE Obs (IPOHE; 17.5 gae/ha): 30%
- Visual Weed Control (%)-21 DAA SCPMA Obs (SCPMA; 4.38 gae/ha): 0%
- Visual Weed Control (%)-21 DAA SCPMA Obs (SCPMA; 8.75 gae/ha): 0%
- Visual Weed Control (%)-20 DAA SCPMA Obs (SCPMA; 35 gae/ha): 0%
- Visual Weed Control (%)-20 DAA SCPMA Obs (SCPMA; 35 gae/ha, Table 11): 0%
- Visual Weed Control (%)-20 DAA SCPMA Obs (SCPMA; 70 gae/ha): 0%
- Visual Weed Control (%)-20 DAA CYPRO Obs (CYPRO; 4.38 gae/ha): 50%
- Visual Weed Control (%)-21 DAA CYPRO Obs (CYPRO; 4.38 gae/ha, Table 11): 0%
- Visual Weed Control (%)-21 DAA CYPRO Obs (CYPRO; 4.38 gae/ha, Table 13): 30%
- Visual Weed Control (%)-21 DAA CYPRO Obs (CYPRO; 8.75 gae/ha, Table 11): 20%
- Visual Weed Control (%)-21 DAA CYPRO Obs (CYPRO; 8.75 gae/ha, Table 13): 60%
- Visual Weed Control (%)-21 DAA CYPRO Obs (CYPRO; 17.5 gae/ha): 10%
- Visual Weed Control (%)-21 DAA FIMMI Obs (FIMMI; 4.38 gae/ha): 20%

SMILES: CO/N=C(\C)c1cccc(Oc2nc(OC)cc(OC)n2)c1C(=O)OC [Pyriminobac-methyl, methyl 2-[(4,6-dimethoxy-2-pyrimidinyl)oxy]-6-[1-(methoxyimino)ethyl]benzoate, reference compound]
- Visual Weed Control (%)-24 DAA LEFCH Obs (LEFCH [1]; 11.25 gai/ha): 0%
- Visual Weed Control (%)-24 DAA LEFCH Obs (LEFCH [1]; 22.5 gai/ha): 0%
- Visual Weed Control (%)-24 DAA DIGSA Obs (DIGSA; 11.25 gai/ha): 0%
- Visual Weed Control (%)-24 DAA DIGSA Obs (DIGSA; 22.5 gai/ha): 0%
- Visual Weed Control (%)-24 DAA IPOHE Obs (IPOHE; 11.25 gai/ha): 10%
- Visual Weed Control (%)-24 DAA IPOHE Obs (IPOHE; 11.25 gai/ha, Table 4): 10%
- Visual Weed Control (%)-24 DAA IPOHE Obs (IPOHE; 22.5 gai/ha): 10%
- Visual Weed Control (%)-24 DAA IPOHE Obs (IPOHE; 22.5 gai/ha, Table 4): 10%
- Visual Weed Control (%)-21 DAA IPOHE Obs (IPOHE; 90 gai/ha): 20%
- Visual Weed Control (%)-24 DAA IPOHE Obs (IPOHE; 90 gai/ha, second part of Table 3): 20%
- Visual Weed Control (%)-21 DAA LEFCH Obs (LEFCH [2]): 80%
- Visual Weed Control (%)-21 DAA SCPMA Obs (SCPMA; 22.5 gai/ha, Table 10): 0%
- Visual Weed Control (%)-21 DAA SCPMA Obs (SCPMA; 22.5 gai/ha, Table 11): 0%
- Visual Weed Control (%)-21 DAA SCPMA Obs (SCPMA; 45 gai/ha, Table 10): 0%
- Visual Weed Control (%)-21 DAA SCPMA Obs (SCPMA; 45 gai/ha, Table 11): 0%
- Visual Weed Control (%)-20 DAA SCPMA Obs (SCPMA; 90 gai/ha, Table 10): 43%
- Visual Weed Control (%)-20 DAA SCPMA Obs (SCPMA; 90 gai/ha, Table 11): 43%
- Visual Weed Control (%)-21 DAA CYPRO Obs (CYPRO; 22.5 gai/ha): 0%
- Visual Weed Control (%)-21 DAA ECHCO Obs (ECHCO): 40%
- Visual Weed Control (%)-21 DAA FIMMI Obs (FIMMI; 22.5 gai/ha): 0%
- Visual Weed Control (%)-21 DAA FIMMI Obs (FIMMI; 45 gai/ha): 0%
